Tests used:
Settings in all cases: 72 h
Calu-3 [1] = test: drug sensitivity score (DSS) for viability; higher = more toxic; extreme values may be limits of the assay
Vero E6 [2] = test: as above
U2OS [3] = test: as above
HepG2 [4] = test: as above
Caco-2 [5] = test: as above
Calu-3 [6] = test: relative viability EC50 (midpoint between 100% and the lowest measured viability); higher = less toxic
Vero E6 [7] = test: as above
U2OS [8] = test: as above
HepG2 [9] = test: as above
Caco-2 [10] = test: as above
Calu-3 [11] = test: cell viability relative to DMSO; higher = less toxic
Vero E6 [12] = test: as above
U2OS [13] = test: as above
HepG2 [14] = test: as above
Caco-2 [15] = test: as above

Structure (SMILES) | drug sensitivity score (Calu-3 [1]) | drug sensitivity score (Vero E6 [2]) | drug sensitivity score (U2OS [3]) | drug sensitivity score (HepG2 [4]) | drug sensitivity score (Caco-2 [5]) | relative viability EC50 (Calu-3 [6]) | relative viability EC50 (Vero E6 [7]) | relative viability EC50 (U2OS [8]) | relative viability EC50 (HepG2 [9]) | relative viability EC50 (Caco-2 [10]) | cell viability (Calu-3 [11]; 1 nM) | cell viability (Calu-3 [11]; 10 nM) | cell viability (Calu-3 [11]; 100 nM) | cell viability (Calu-3 [11]; 1000 nM) | cell viability (Calu-3 [11]; 10000 nM) | cell viability (Vero E6 [12]; 1 nM) | cell viability (Vero E6 [12]; 10 nM) | cell viability (Vero E6 [12]; 100 nM) | cell viability (Vero E6 [12]; 1000 nM) | cell viability (Vero E6 [12]; 10000 nM) | cell viability (U2OS [13]; 1 nM) | cell viability (U2OS [13]; 10 nM) | cell viability (U2OS [13]; 100 nM) | cell viability (U2OS [13]; 1000 nM) | cell viability (U2OS [13]; 10000 nM) | cell viability (HepG2 [14]; 1 nM) | cell viability (HepG2 [14]; 10 nM) | cell viability (HepG2 [14]; 100 nM) | cell viability (HepG2 [14]; 1000 nM) | cell viability (HepG2 [14]; 10000 nM) | cell viability (Caco-2 [15]; 1 nM) | cell viability (Caco-2 [15]; 10 nM) | cell viability (Caco-2 [15]; 100 nM) | cell viability (Caco-2 [15]; 1000 nM) | cell viability (Caco-2 [15]; 10000 nM)
Cc1c(CN2CCN(C(=O)[C@H](C)O)CC2)sc2c(N3CCOCC3)nc(-c3cnc(N)nc3)nc12 [GDC-0980] | 11.9 | 8.8 | 7.8 | 11.1 | 11 | 0.537 µM | 0.899 µM | 1.53 µM | 0.67 µM | 0.561 µM | 107% | 101% | 93.6% | 42.2% | 19.2% | 96.5% | 101% | 87.7% | 62.9% | 23.4% | 101% | 98% | 98.8% | 78.9% | 18.1% | 104% | 102% | 89.9% | 49.5% | 15.9% | 99.4% | 88.5% | 93.1% | 47.8% | 22.4%
O=C(NCCCCN1CCN(c2cccc(Cl)c2Cl)CC1)c1ccc2c(c1)Cc1ccccc1-2 [NGB-2904] | 0 | 0 | 0 | 0 | 0 | > 10 µM | > 10 µM | > 10 µM | > 10 µM | > 10 µM | 94.3% | 97.9% | 86.5% | 108% | 99.9% | 96.7% | 91.2% | 93.6% | 89.5% | 98.3% | 93.5% | 102% | 95.6% | 102% | 100% | 107% | 94.1% | 99.3% | 91.2% | 92.9% | 89.4% | 97.2% | 97% | 109% | 103%
C[N+](C)(C)CC[N+]1(C)Cc2c(Cl)c(Cl)c(Cl)c(Cl)c2C1 [chlorisondamine-diiodide] | 0 | 0 | 0 | 0 | 0 | > 10 µM | > 10 µM | > 10 µM | > 10 µM | > 10 µM | 93.2% | 102% | 102% | 89.8% | 100% | 100% | 95.5% | 95.7% | 97.4% | 94% | 97.2% | 96.2% | 96.1% | 97.5% | 92.5% | 94% | 110% | 103% | 99.9% | 101% | 92.1% | 93% | 99.9% | 103% | 88.8%
CCCC[C@@]1(C2CCCC2)Cc2cc(OCCCC(=O)O)c(Cl)c(Cl)c2C1=O [DCPIB] | 0 | 0 | 0 | 0 | 0.9 | > 10 µM | > 10 µM | > 10 µM | > 10 µM | > 10 µM | 87% | 96.4% | 106% | 89.1% | 118% | 109% | 109% | 99.7% | 100% | 101% | 95.7% | 90.4% | 97.4% | 93.9% | 94.5% | 109% | 98.1% | 99.1% | 92.5% | 94.8% | 105% | 108% | 103% | 88.3% | 85.8%

Source: the supplement of paper PMC13380429
